Data reported in EP0940081A1, “Combinations of active agents and disinfectants, preservatives and antiseptics containing same” (Bode Chemie GmbH & Co., priority 1998, dated 1999).

Tests used:
[1] = system: Sporen von Bacillus subtilis var. niger ATCC 9372; test: Sporicidal activity on spore test strips; assay type: cell-based; conditions: Monowirkstoff; Einwirkungszeit 3 Tage
Source text: Methodik: Kommerzielle Teststreifen mit 10^6 Sporen von Bacillus subtilis var. niger ATCC 9372 (BAG-Bio Strips, Biologische Analysensystem GmbH Lich) wurden für 3 Tage in eine Lösung der Prüfsubstanz eingelegt. Danach wurden die Teststreifen in eine Nährlösung überführt und 7 Tage bebrütet.

Proteus mirabilis = test: Agar incorporation test, bacteriostatic activity; assay type: cell-based; set-up: key: ⊕⊕: ungehemmtes Wachstum; ⊕: vermindertes Wachstum; -: absolute Hemmung (a. H.); conditions: 24 h bei 36 °C
Source text: (§1) Methodik: Percarbamid und Dodecylthiouroniumchlorid werden unter städigem Durchmischen bis zur vollständigen Homogenisierung erwärmt. Die Prüfung der Kombination im Vergleich zu den entsprechenden Monowirkstoffen auf bakteriostatische Wirksamkeit erfolgte im Agarinkorporationstest. Die zu untersuchenden Substanzen wurden in Wasser standardisierter Härte gelöst. Die Konzentration der Testsubstanzen im Nähragar wurde in einer geometrischen Reihe auf der Basis 2 abgestuft. Zum Beimpfen der Testplatten wurden die im Beispiel 1 genannten Testkeime 6 h in Caseinpepton-Sojamehlpepton-Lösung bebrütet und so in eine logarithmische Wachstumsphase gebracht. Danach wurden die Agarplatten sternförmig sektorenweise mit jeweils einer ? abgestrichenen Öse beimpft. Der Sektor von Proteus mirabilis wurde durch Gräben abgetrennt, um das Schwärmen zu verhindern. Nach 24 h Bebrütung bei 36 °C erfolgte die Bewertung des Bakterienwachstums unter Vergleich mit substanzfreien Kontrollplatten nach folgendem Schema: ++++ ungehemmtes Wachstum +++ geringe Wachstumshemmung (maximal ¾ des Wachstums der Kontrollen) ++ mäßige Wachstumshemmung (maximal ½ des Wachstums der Kontrollen) + starke Wachstumshemmung (maximal ¼ des Wachstums der Kontrollen) Das sog. ? verminderte Wachstum" (v. W.) umfaßt die Bereiche + bis +++ - absolute Hemmung (a. H.)
(§2) In den Tabellen 5, 6 und 7 bedeuten ⊕⊕ ungehemmtes Wachstum und ⊕ vermindertes Wachstum.

Escherichia coli = test: Agar incorporation test, bacteriostatic activity; assay type: cell-based; set-up: key: ⊕⊕: ungehemmtes Wachstum; ⊕: vermindertes Wachstum; -: absolute Hemmung (a. H.); conditions: 24 h bei 36 °C
Source text: as §1, §2

Enterococcus faecium = test: Agar incorporation test, bacteriostatic activity; assay type: cell-based; set-up: key: ⊕⊕: ungehemmtes Wachstum; ⊕: vermindertes Wachstum; -: absolute Hemmung (a. H.); conditions: 24 h bei 36 °C
Source text: as §1, §2

Staphylococcus aureus = test: Agar incorporation test, bacteriostatic activity; assay type: cell-based; set-up: key: ⊕⊕: ungehemmtes Wachstum; ⊕: vermindertes Wachstum; -: absolute Hemmung (a. H.); conditions: 24 h bei 36 °C
Source text: as §1, §2

[2] = system: humanen Amnionepithelzellen; assay type: cell-based, human
Source text: Methodik: Die Untersuchungen wurden an einer Perfusionszellkultur mit humanen Amnionepithelzellen durchgeführt. Der Glucoseverbrauch wurde kontinuierlich von 1 bis 96 Stunden biosensorisch gemessen (Jülich et al., im Druck). Die Prüfsubstanzen wirkten von der 25. bis 48. Stunde ein.

[3] = system: FL-Linie (menschliche Amnionzellen); test: Cytotoxicity, cell count of monolayer culture after 24 h exposure; assay type: cell-based, human; conditions: for Median der Zellzahl: 24 h
Description: Methodik: Die Zytotoxizität wird an der FL-Linie (menschliche Amnionzellen) geprüft. 2-3 Tage nach der Zelleinsaat werden die Zellen, nachdem sie als einschichtige Zellkultur (Monolayer) vorliegen, nach Medienwechsel für 24 h mit der Prüfsubstanz exponiert, danach abgelöst und die Zellzahl in % zur Kontrolle mit dem Zellzähler Universal 87001 (mölab, Hilden) ermittelt.

Pseudomonas aeruginosa = test: Agar incorporation test, bacteriostatic activity; assay type: cell-based; set-up: key to Bakteriostatische Wirksamkeit (Wachstum): ⊕⊕: ungehemmtes Wachstum; ⊕: vermindertes Wachstum; -: absolute Hemmung (a. H.); conditions: for Bakteriostatische Wirksamkeit (Wachstum): 24 h bei 36 °C
Source text: as §1, §2

[4] = Konzentration in Wasser 0,0015 %
[5] = Konzentration in Wasser 0,003 %
[6] = Konzentration in Wasser 0,006 %
[7] = Konzentration in Wasser 0,012 %
[8] = Konzentration in Wasser 0,025 %

For Wasserstoffperoxid, the “Konzentration erforderlich zur Erreichung dieses Effektes (Reduktion der Sporen von 6 log-Stufen)” value [1] was 0,6%, the “Bakteriostatische Wirksamkeit (Wachstum)” value (Proteus mirabilis; Konzentration in Wasser 0,1 %) was “-” and the “Bakteriostatische Wirksamkeit (Wachstum)” value (Proteus mirabilis; Konzentration in Wasser 0,2 %) was “-”. The “Bakteriostatische Wirksamkeit (Wachstum)” value (Proteus mirabilis; Konzentration in Wasser 0,4 %) was “-”, the “Bakteriostatische Wirksamkeit (Wachstum)” value (Proteus mirabilis; Konzentration in Wasser 0,05 %) was “-” and the “Bakteriostatische Wirksamkeit (Wachstum)” value (Proteus mirabilis; Konzentration in Wasser 0,8 %) was “-”. The “Bakteriostatische Wirksamkeit (Wachstum)” value (Proteus mirabilis; [4]) was “⊕⊕”, the “Bakteriostatische Wirksamkeit (Wachstum)” value (Proteus mirabilis; [5]) was “⊕⊕” and the “Bakteriostatische Wirksamkeit (Wachstum)” value (Proteus mirabilis; [6]) was “⊕⊕”. The “Bakteriostatische Wirksamkeit (Wachstum)” value (Proteus mirabilis; [7]) was “-”, the “Bakteriostatische Wirksamkeit (Wachstum)” value (Proteus mirabilis; [8]) was “-” and the “Bakteriostatische Wirksamkeit (Wachstum)” value (Escherichia coli; Konzentration in Wasser 0,1 %) was “-”. The “Bakteriostatische Wirksamkeit (Wachstum)” value (Escherichia coli; Konzentration in Wasser 0,2 %) was “-”, the “Bakteriostatische Wirksamkeit (Wachstum)” value (Escherichia coli; Konzentration in Wasser 0,4 %) was “-” and the “Bakteriostatische Wirksamkeit (Wachstum)” value (Escherichia coli; Konzentration in Wasser 0,05 %) was “-”. The “Bakteriostatische Wirksamkeit (Wachstum)” value (Escherichia coli; Konzentration in Wasser 0,8 %) was “-”, the “Bakteriostatische Wirksamkeit (Wachstum)” value (Escherichia coli; [4]) was “⊕⊕” and the “Bakteriostatische Wirksamkeit (Wachstum)” value (Escherichia coli; [5]) was “⊕⊕”. The “Bakteriostatische Wirksamkeit (Wachstum)” value (Escherichia coli; [6]) was “⊕⊕”, the “Bakteriostatische Wirksamkeit (Wachstum)” value (Escherichia coli; [7]) was “-” and the “Bakteriostatische Wirksamkeit (Wachstum)” value (Escherichia coli; [8]) was “-”. The “Bakteriostatische Wirksamkeit (Wachstum)” value (Enterococcus faecium; Konzentration in Wasser 0,1 %) was “-”, the “Bakteriostatische Wirksamkeit (Wachstum)” value (Enterococcus faecium; Konzentration in Wasser 0,2 %) was “-” and the “Bakteriostatische Wirksamkeit (Wachstum)” value (Enterococcus faecium; Konzentration in Wasser 0,4 %) was “-”. For the same substance, the “Bakteriostatische Wirksamkeit (Wachstum)” value (Enterococcus faecium; Konzentration in Wasser 0,05 %) was “-”, the “Bakteriostatische Wirksamkeit (Wachstum)” value (Enterococcus faecium; Konzentration in Wasser 0,8 %) was “-” and the “Bakteriostatische Wirksamkeit (Wachstum)” value (Enterococcus faecium; [4]) was “⊕⊕”. The “Bakteriostatische Wirksamkeit (Wachstum)” value (Enterococcus faecium; [5]) was “⊕⊕”, the “Bakteriostatische Wirksamkeit (Wachstum)” value (Enterococcus faecium; [6]) was “⊕” and the “Bakteriostatische Wirksamkeit (Wachstum)” value (Enterococcus faecium; [7]) was “-”. For the same substance, the “Bakteriostatische Wirksamkeit (Wachstum)” value (Enterococcus faecium; [8]) was “-”, the “Bakteriostatische Wirksamkeit (Wachstum)” value (Staphylococcus aureus; Konzentration in Wasser 0,1 %) was “-” and the “Bakteriostatische Wirksamkeit (Wachstum)” value (Staphylococcus aureus; Konzentration in Wasser 0,2 %) was “-”. The “Bakteriostatische Wirksamkeit (Wachstum)” value (Staphylococcus aureus; Konzentration in Wasser 0,4 %) was “-”, the “Bakteriostatische Wirksamkeit (Wachstum)” value (Staphylococcus aureus; Konzentration in Wasser 0,05 %) was “-” and the “Bakteriostatische Wirksamkeit (Wachstum)” value (Staphylococcus aureus; Konzentration in Wasser 0,8 %) was “-”. The “Bakteriostatische Wirksamkeit (Wachstum)” value (Staphylococcus aureus; [4]) was “⊕⊕”, the “Bakteriostatische Wirksamkeit (Wachstum)” value (Staphylococcus aureus; [5]) was “⊕⊕” and the “Bakteriostatische Wirksamkeit (Wachstum)” value (Staphylococcus aureus; [6]) was “⊕⊕”. For the same substance, the “Bakteriostatische Wirksamkeit (Wachstum)” value (Staphylococcus aureus; [7]) was “-”, the “Bakteriostatische Wirksamkeit (Wachstum)” value (Staphylococcus aureus; [8]) was “-” and the “Glucosestoffwechsel der FL-Zellen” value [2] was “signifikante, aber reversible Verminderung”. For the same substance, the Zellwachstum [3] was “vollständigen Inhibierung des Zellwachstums”, the “Median der Zellzahl” value ([3]; Prüfkonzentration 0,001 %) was 17,9 % der Kontrolle and the “Median der Zellzahl” value ([3]; Prüfkonzentration 0,0015 %) was 7,3 % der Kontrolle. For the same substance, the “Bakteriostatische Wirksamkeit (Wachstum)” value (Pseudomonas aeruginosa; Konzentration in Wasser 0,1 %) was “-”, the “Bakteriostatische Wirksamkeit (Wachstum)” value (Pseudomonas aeruginosa; Konzentration in Wasser 0,2 %) was “-” and the “Bakteriostatische Wirksamkeit (Wachstum)” value (Pseudomonas aeruginosa; Konzentration in Wasser 0,4 %) was “-”. For the same substance, the “Bakteriostatische Wirksamkeit (Wachstum)” value (Pseudomonas aeruginosa; Konzentration in Wasser 0,05 %) was “-”, the “Bakteriostatische Wirksamkeit (Wachstum)” value (Pseudomonas aeruginosa; Konzentration in Wasser 0,8 %) was “-” and the “Bakteriostatische Wirksamkeit (Wachstum)” value (Pseudomonas aeruginosa; [4]) was “⊕⊕”. The “Bakteriostatische Wirksamkeit (Wachstum)” value (Pseudomonas aeruginosa; [5]) was “⊕⊕”, the “Bakteriostatische Wirksamkeit (Wachstum)” value (Pseudomonas aeruginosa; [6]) was “⊕⊕” and the “Bakteriostatische Wirksamkeit (Wachstum)” value (Pseudomonas aeruginosa; [7]) was “⊕⊕”. The “Bakteriostatische Wirksamkeit (Wachstum)” value (Pseudomonas aeruginosa; [8]) was “⊕⊕” and the “Konzentration, durch die Pseudomonas aeruginosa gehemmt wird (minimale Hemmkonzentration)” value (Pseudomonas aeruginosa; single substance, resistentester Testkeim) was 0,05%.
